This passage reports IC50 results from US9725449B2, “Tricyclic compounds as anticancer agents” (BRISTOL-MYERS SQUIBB COMPANY, priority 2015, dated 2017).

This experiment deals with BRD4 (Homo sapiens, UniProt O60885). Kind of experiment: Time resolved fluorescence resonance energy transfer (TR-FRET) binding assay, bromodomain BRD4. As to conditions: one of the FRET assays described; read-out: FRET BRD4 IC50.

For orientation: IC50 means the midpoint of a concentration-inhibition curve.

`[2H]C([2H])([2H])c1nnn(C)c1-c1cnc2c3cnc(Cl)cc3n(C(c3ncccc3F)C3CCOCC3)c2c1` (single isomer, unassigned) [Example 321]: the IC50 was less than 10 nM.

For `Cc1nnn(C)c1-c1cnc2c3ccc([S+](C)[O-])nc3n([C@H](c3ccccc3)C3CCOCC3)c2c1` (stereo partly drawn) [Example 200, 5-(Dimethyl-1H-1,2,3-triazol-5-yl)-11-methanesulfinyl-8-[(S)-oxan-4-yl(phenyl)methyl]-3,8,10-triazatricyclo[7.4.0.0^2,^7]trideca-1(9),2(7),3,5,10,12-hexaene], the IC50 was less than 10 nM.

For `[2H]C([2H])([2H])c1nnn(C)c1-c1cnc2c3c(NCC(F)(F)F)ncc(S(C)(=O)=O)c3n([C@H](c3ccccc3)C3CCOCC3)c2c1` [Example 277, 10-Methanesulfonyl-5-[4-(^2H3)methyl-1-methyl-1H-1,2,3-triazol-5-yl]-8-[(S)-oxan-4-yl(phenyl)methyl]-N-(2,2,2-trifluoroethyl)-3,8,12-triazatricyclo[7.4.0.0^2,^7]trideca-1(13),2(7),3,5,9,11-hexaen-13-amine], the 50% inhibitory concentration (IC50) is less than 1 nM.

`[2H]C([2H])([2H])c1nnn(C)c1-c1cnc2c3c(OC)ncc(C(C)(C)O)c3n(C(c3ccccc3)C3CCC(F)(F)CC3)c2c1` (single isomer, unassigned) [Example 282, 2-{8-[(4,4-Difluorocyclohexyl)(phenyl)methyl]-13-methoxy-5-[4-(^2H3)methyl-1-methyl-1H-1,2,3-triazol-5-yl]-3,8,12-triazatricyclo[7.4.0.0^2,^7]trideca-1(9),2,4,6,10,12-hexaen-10-yl}propan-2-ol]: the half-maximal inhibitory concentration (IC50) was less than 1 nM.

Turning to `[2H]C([2H])([2H])c1nnn(C)c1-c1cnc2c3ccc(-c4ccc(C(C)(C)O)s4)nc3n([C@H](c3ccccc3)C3CCOCC3)c2c1` [Example 176, 2-(5-{5-[4-(^2H3)Methyl-1-methyl-1H-1,2,3-triazol-5-yl]-8-[(S)-oxan-4-yl(phenyl)methyl]-3,8,10-triazatricyclo[7.4.0.0^2,^7]trideca-1(9),2(7),3,5,10,12-hexaen-11-yl}thiophen-2-yl)propan-2-ol], the IC50 was less than 10 nM.

For the compound `Cc1nnn(C)c1-c1cnc2c3ccc(N4CCC(C#N)CC4)nc3n([C@H](c3ccccc3F)C3CCOCC3)c2c1` [Example 274, 1-[5-(Dimethyl-1H-1,2,3-triazol-5-yl)-8-[(S)-(2-fluorophenyl)(oxan-4-yl)methyl]-3,8,10-triazatricyclo[7.4.0.0^2,^7]trideca-1(13),2(7),3,5,9,11-hexaen-11-yl]piperidine-4-carbonitrile], the IC50 was less than 10 nM.

Turning to `Cc1cccnc1C(C1CCOCC1)n1c2cc(-c3c(C)nnn3C)ncc2c2ncc(C(C)(C)O)cc21` (single isomer, unassigned) [Example 374], the IC50 was less than 10 nM.

For `Cc1noc(C)c1-c1cnc2c3ccc(S(C)(=O)=O)nc3n([C@H](c3ccccc3F)C3CCOCC3)c2c1` [Example 222, 5-(Dimethyl-1,2-oxazol-4-yl)-8-[(S)-(2-fluorophenyl)(oxan-4-yl)methyl]-11-methanesulfonyl-3,8,10-triazatricyclo[7.4.0.0^2,^7]trideca-1(13),2(7),3,5,9,11-hexaene], the IC50 was less than 10 nM.

With `[2H]C([2H])([2H])c1nnn(C)c1-c1cnc2c3ccc(C(C)(O)C4CC4)nc3n([C@H](c3ccccc3F)C3CCOCC3)c2c1` (stereo partly drawn) [Example 242, 1-Cyclopropyl-1-{8-[(S)-(2-fluorophenyl)(oxan-4-yl)methyl]-5-[4-(^2H3)methyl-1-methyl-1H-1,2,3-triazol-5-yl]-3,8,10-triazatricyclo[7.4.0.0^2,^7]trideca-1(13),2(7),3,5,9,11-hexaen-11-yl}ethan-1-ol], the 50% inhibitory concentration (IC50) is less than 10 nM.

Take `COc1ncc(Cl)c2c1c1ncc(-c3c(C)nnn3C)cc1n2[C@H](c1ccccc1)C1CCOCC1` [Example 40, 10-Chloro-5-(dimethyl-1H-1,2,3-triazol-5-yl)-13-methoxy-8-[(S)-oxan-4-yl(phenyl)methyl]-3,8,12-triazatricyclo[7.4.0.0^2,^7]trideca-1(13),2(7),3,5,9,11-hexaene]: the concentration for half-maximal inhibition (IC50) is less than 1 nM.

As to `Cc1noc(C)c1-c1cnc2c3c(OCC4CC4)ncc(S(C)(=O)=O)c3n([C@H](c3ccccc3)C3CCOCC3)c2c1` [Example 103, 13-(Cyclopropylmethoxy)-5-(dimethyl-1,2-oxazol-4-yl)-10-methanesulfonyl-8-[(S)-oxan-4-yl(phenyl)methyl]-3,8,12-triazatricyclo[7.4.0.0^2,^7]trideca-1(13),2(7),3,5,9,11-hexaene], the IC50 was less than 10 nM.

For `Cc1nnn(C)c1-c1cnc2c3cnc(C(C)(C)O)cc3n([C@H](c3ccc(F)cc3)C3CCOCC3)c2c1` [Example 336], the IC50 is less than 10 nM.

As for `COc1ncc(CO)c2c1c1ncc(-c3c(C)nnn3C)cc1n2[C@H](c1ccccc1)C1CCOCC1` [Example 136, [5-(Dimethyl-1H-1,2,3-triazol-5-yl)-13-methoxy-8-[(S)-oxan-4-yl(phenyl)methyl]-3,8,12-triazatricyclo[7.4.0.0^2,^7]trideca-1(9),2,4,6,10,12-hexaen-10-yl]methanol], the half-inhibitory concentration (IC50) was less than 10 nM.

As to `CCN(CCN(C)C)c1ccc2c3ncc(-c4c(OC)nnn4C)cc3n([C@H](c3ccccc3F)C3CCOCC3)c2n1` [Example 257, N-[2-(Dimethylamino)ethyl]-N-ethyl-8-[(S)-(2-fluorophenyl)(oxan-4-yl)methyl]-5-(4-methoxy-1-methyl-1H-1,2,3-triazol-5-yl)-3,8,10-triazatricyclo[7.4.0.0^2,^7]trideca-1(13),2(7),3,5,9,11-hexaen-11-amine], the concentration for half-maximal inhibition (IC50) was less than 1 nM.

As for `Cc1nnn(C)c1-c1cnc2c3ccc(N4CCN(S(C)(=O)=O)CC4)nc3n([C@H](c3ccccc3)C3CCOCC3)c2c1` [Example 188, 5-(Dimethyl-1H-1,2,3-triazol-5-yl)-11-(4-methanesulfonylpiperazin-1-yl)-8-[(S)-oxan-4-yl(phenyl)methyl]-3,8,10-triazatricyclo[7.4.0.0^2,^7]trideca-1(9),2(7),3,5,10,12-hexaene], the IC50 is less than 1 nM.

Take `Cc1nnn(C)c1-c1cnc2c3ccc(N4CCOCC4)nc3n([C@H](c3ccccc3)C3CCOCC3)c2c1` [Example 178, 5-(Dimethyl-1H-1,2,3-triazol-5-yl)-11-(morpholin-4-yl)-8-[(S)-oxan-4-yl(phenyl)methyl]-3,8,10-triazatricyclo[7.4.0.0^2,^7]trideca-1(9),2(7),3,5,10,12-hexaene]: the IC50 was less than 1 nM.

As for `Cc1nnn(C)c1-c1cnc2c3ccnc(N4CCOCC4)c3n([C@H](c3ccccc3)C3CCOCC3)c2c1` [Example 7, 5-(Dimethyl-1H-1,2,3-triazol-5-yl)-10-(morpholin-4-yl)-8-[(S)-oxan-4-yl(phenyl)methyl]-3,8,11-triazatricyclo[7.4.0.0^2,^7]trideca-1(13),2(7),3,5,9,11-hexaene], the IC50 is less than 10 nM.

`COc1nnn(C)c1-c1cnc2c3ccc(-c4c(OC)nnn4C)nc3n([C@H](c3ccccc3F)C3CCOCC3)c2c1` [Example 253, 8-[(S)-(2-Fluorophenyl)(oxan-4-yl)methyl]-5,11-bis(4-methoxy-1-methyl-1H-1,2,3-triazol-5-yl)-3,8,10-triazatricyclo[7.4.0.0^2,^7]trideca-1(13),2(7),3,5,9,11-hexaene]: the IC50 is less than 10 nM.

As for `[2H]C([2H])([2H])c1nnn(C)c1-c1cnc2c3c(OCC4CC4)ncc(S(C)(=O)=O)c3n([C@H](c3ccc(F)cc3)C3CCOCC3)c2c1` [Example 78, 13-(Cyclopropylmethoxy)-8-[(S)-(4-fluorophenyl)(oxan-4-yl)methyl]-10-methanesulfonyl-5-[4-(^2H3)methyl-1-methyl-1H-1,2,3-triazol-5-yl]-3,8,12-triazatricyclo[7.4.0.0^2,^7]trideca-1(13),2(7),3,5,9,11-hexaene], the IC50 is less than 1 nM.

`Cc1noc(C)c1-c1ccc2c3ncc(-c4c(C)nnn4C)cc3n([C@H](c3ccccc3)C3CCOCC3)c2n1` [Example 147, 11-(Dimethyl-1,2-oxazol-4-yl)-5-(dimethyl-1H-1,2,3-triazol-5-yl)-8-[(S)-oxan-4-yl(phenyl)methyl]-3,8,10-triazatricyclo[7.4.0.0^2,^7]trideca-1(13),2(7),3,5,9,11-hexaene]: the concentration for half-maximal inhibition (IC50) is less than 10 nM.

Consider `COc1ncc(Br)c2c1c1ncc(-c3c(C)nnn3C)cc1n2[C@H](c1ccccc1)C1CCOCC1` [Example 38, 10-Bromo-5-(dimethyl-1H-1,2,3-triazol-5-yl)-13-methoxy-8-[(S)-oxan-4-yl(phenyl)methyl]-3,8,12-triazatricyclo[7.4.0.0^2,^7]trideca-1(13),2(7),3,5,9,11-hexaene], for which the half-maximal inhibitory concentration (IC50) is less than 10 nM.

For the compound `[2H]C([2H])([2H])c1nnn(C)c1-c1cnc2c3cc(C(C)(C)O)cnc3n([C@H](c3ncccc3F)C3CCOCC3)c2c1` [Example 352, 2-{8-[(S)-(3-Fluoropyridin-2-yl)(oxan-4-yl)methyl]-5-[4-(^2H3)methyl-1-methyl-1H-1,2,3-triazol-5-yl]-3,8,10-triazatricyclo[7.4.0.0^2,^7]trideca-1(13),2(7),3,5,9,11-hexaen-12-yl}propan-2-ol], the concentration for half-maximal inhibition (IC50) is less than 10 nM.

As to `[2H]C([2H])([2H])c1nnn(C)c1-c1cnc2c3ccc(C(C)(O)C4CC4)nc3n([C@H](c3ccccc3F)C3CCOCC3)c2c1` (stereo partly drawn) [Example 243, 1-Cyclopropyl-1-{8-[(S)-(2-fluorophenyl)(oxan-4-yl)methyl]-5-[4-(^2H3)methyl-1-methyl-1H-1,2,3-triazol-5-yl]-3,8,10-triazatricyclo[7.4.0.0^2,^7]trideca-1(13),2(7),3,5,9,11-hexaen-11-yl}ethan-1-ol], the IC50 is less than 10 nM.

On to `Cc1nnn(C)c1-c1cnc2c3ccc(C(C)O)nc3n([C@H](c3ccccc3)C3CCOCC3)c2c1` (stereo partly drawn) [Example 173, 1-[5-(Dimethyl-1H-1,2,3-triazol-5-yl)-8-[(S)-oxan-4-yl(phenyl)methyl]-3,8,10-triazatricyclo[7.4.0.0^2,^7]trideca-1(9),2(7),3,5,10,12-hexaen-11-yl]ethan-1-ol], for which the IC50 was less than 10 nM.

As to `[2H]C([2H])([2H])c1nnn(C)c1-c1cnc2c3c(OCC)nccc3n([C@H](c3ccccc3)C3CCOCC3)c2c1` [Example 129, 13-Ethoxy-5-[4-(^2H3)methyl-1-methyl-1H-1,2,3-triazol-5-yl]-8-[(S)-oxan-4-yl(phenyl)methyl]-3,8,12-triazatricyclo[7.4.0.0^2,^7]trideca-1(13),2(7),3,5,9,11-hexaene], the half-maximal inhibitory concentration (IC50) was less than 1 nM.
